The values below are quoted from earlier work in patent US8668905B2 (priority 2005, dated 2014).

SMILES strings stand for the structures.

This data set deals with drug-resistant SCLC.

On to `CC(=O)O[C@H]1C(=O)[C@@]2(C)[C@H]([C@H](OC(=O)c3ccccc3)[C@]3(O)C[C@H](OC(=O)[C@H](O)[C@@H](NC(=O)c4ccccc4)c4ccccc4)C(C)=C1C3(C)C)[C@]1(OC(C)=O)CO[C@@H]1C[C@@H]2O` [Taxol, Paclitaxel], for which the life-threatening toxicity ((Smit, 1998)) is listed as 20 % of patients. Also, the median survival (drug-resistant SCLC patients (Smit, 1998)) was 100 days.
